Results taken from patent US12680075B2, “Immune cells derived from induced pluripotent stem cell” (THE CHILDREN'S MEDICAL CENTER CORPORATION, priority 2016, dated 2026).

Columns and labels:
Format in all cases: cell-based, human
5F cells = test: Colony-forming assays of 5F cells treated with GSK126; settings: 3 uM GSK126
Experimental: Colony assays. After 14 days of respecification, 5×10^4 cells were plated into 3 ml of complete methylcellulose H3434 (StemCell Technologies) supplemented with 10 ng/ml IL6 (Peprotech), 10 ng/ml FLT3 (R&D), and 50 ng/ml TPO (R&D). The mixture was distributed into two 60 mm dishes and maintained in a humidified chamber for 14 days.
(§1) To dissect the importance of PRC2 in definitive hematopoietic potential, the inventors knocked down each component of PRC2 (2 shRNAs per gene) in 5F cells and assessed T cell differentiation. The inventors confirmed efficient knockdown by each shRNA (FIG. 3A). […] To validate this finding, the inventors used an […], GSK126, that has 150-fold higher selectivity for EZH2 over EZH1 (McCabe et al. 2012) (FIGS. 3G, 3I and 3J). […] To test the effect of EZH2 inhibition on T cell potential, the inventors generated definitive hemogenic endothelium (HE) from hPSCs with T lymphoid potential via inhibition of Activin/Nodal signaling at the early stage of mesoderm differentiation (Kennedy et al. 2012).

[1] = test system: CD34+ d9 hemogenic endothelial (HE) cells; test: T cell potential of CD34+ d9 hemogenic endothelial cells treated with GSK126; settings: 3 uM GSK126 vs DMSO-treated cells
Source text: as §1

EZH2 and EZH1 = test: Total H3K27me3 protein levels in 5F cells treated with GSK126
Experimental: At 3 uM, protein levels of total H3K27me3 begins to decrease relative to DMSO control, indicating effective dose for EZH2 and EZH1 inhibition.
as §1

CC[C@H](C)n1cc(C)c2c(C(=O)NCc3c(C)cc(C)[nH]c3=O)cc(-c3ccc(N4CCNCC4)nc3)cc21 [GSK126]
toxicity as assessed by colony-forming assays (5F cells): partial toxicity | CD4+CD8+ T cell population [1]: abrogated | global H3K27me3 (EZH2 and EZH1; 3 uM GSK126, 5F cells): markedly reduced | concentration at which total H3K27me3 begins to decrease relative to DMSO control (effective dose for EZH2 and EZH1 inhibition) (EZH2 and EZH1; 5F cells): 3 µM | EZH2 and EZH1 enzymatic activity as monitored by total protein levels of H3K27me3 (EZH2 and EZH1; increasing concentration of GSK126, 5F cells): dose-dependent decrease
